The values below come from patent publication US20080096831A1, “Stabilized azithromycin composition” (priority 2003, published 2008).

The nature of this data set: Impurity analysis of azithromycin monohydrate granules by HPLC after storage at 50° C. for 8 days. In kind it is physicochemical. To be noted: results of Table 1. The protocol: Wet granules prepared according to the procedure set forth in Example 1 were placed on a tray which was placed in an oven at 55° C. Six samples were taken at different times and the moisture content was determined using an OHAUS Balance. The water/moisture content of each sample varied from 3.3-12.5 wt %, based on the total weight of the granules. The samples were stored in glass bottles, sealed, and placed in an oven at 50° C. After 8 days, the samples were removed from the oven and the amount and type of impurities was determined by high performance liquid chromatography (HPLC).
Sample solutions were freshly prepared from azithromycin monohydrate and injected on column. The percentages of impurities was calculated from the integrator output. The performance of the HPLC system was tested using standardized solutions of azithromycin monohydrate.
Three impurities were identified and measured as a percentage of the total azithromycin monohydrate in each sample.

The structures appear in SMILES notation.

With `CC[C@H]1OC(=O)[C@H](C)[C@@H](O[C@H]2C[C@@](C)(OC)[C@@H](O)[C@H](C)O2)[C@H](C)[C@@H](O[C@@H]2O[C@H](C)C[C@H](N(C)C)[C@H]2O)[C@](C)(O)C[C@@H](C)CN(C)[C@H](C)[C@@H](O)[C@]1(C)O` (relative stereo) [azithromycin monohydrate, [2R-(2R*,3S*,4R*,5R*,8R*, 10R*, 11R*, 12S*, 13S*, 14R*)]-13-[(2,6-dideoxy-3-C-methyl-3-β-methyl-α-L-ribo-hexopyranosyl)oxy]-2-ethyl-3,4,10-trihydroxy-3,5,6,8,10,12,14-heptamethyl-11-[[3,4,6-trideoxy-3-(dimethylamino)-β-D-xylo-hexopyranosyl]oxy]-1-oxa-6-azacyclopentadecan-15-one monohydrate], the “water content range in which chemical stability is good” value was 5.5-12.4 wt %.
